Measurements from PMC3442999, “Characterization of purified and Xerogel immobilized Novel Lignin Peroxidase produced from Trametes versicolor IBL-04 using solid state medium of Corncobs” (BMC Biotechnology, 2012).

System: T1, LiP (lignin peroxidase) of T. versicolor IBL-04
T1 construct: native secreted enzyme purified from solid-state culture on corncobs (ammonium sulfate, Sephadex G-100, DEAE-cellulose); monomer, 30 kDa on SDS and native PAGE
Experiment: veratryl alcohol oxidation to veratraldehyde at […] nm, Lineweaver-Burk
Assay type: biochemical, Trametes versicolor
Conditions: free enzyme; H2O2 co-substrate; incubated 15 min at 25°C in citrate phosphate pH 6.0 before assay; 100-1000 μM substrate

`COc1ccc(CO)cc1OC` [veratryl alcohol] gave a Km of 70 µM.
